Converted amounts (≈) assume the structure as drawn.
Experiments:
[1] = tested on: Streptococcus sp. (Group D); experiment: agar-dilution MIC; assay type: cell-based; conditions: Streptococcus sp. Group D X66; end point after 24 hours; Table 18
Excerpt: (§1) The agar-dilution procedure described by the International Collaborative study (ICS) group was used to determine the minimum inhibitory concentrations (MIC's).

Streptococcus pneumoniae = experiment: agar-dilution MIC; assay type: cell-based
Excerpt: as §1

Streptococcus pyogenes = experiment: agar-dilution MIC; assay type: cell-based
Excerpt: as §1

Bacteroides fragilis = experiment: agar-dilution MIC; assay type: cell-based
Excerpt: as §1

Hemophilus influenzae = experiment: agar-dilution MIC; assay type: cell-based
[2] = tested on: Bacteroides melaninogenicus; experiment: agar-dilution MIC; assay type: cell-based; conditions: Bacteroides melaninogenicus 2736; Table 14
Staph. aureus = experiment: experimental bacterial infection in mice; assay type: in vivo; conditions: two doses subcutaneously
Experimental: All of the A41030 factors tested have shown in vivo antimicrobial activity against experimental bacterial infections. When two doses of test compound were administered subcutaneously to mice in illustrative infections, the activity observed is measured as an ED50 value [effective dose in mg./kg. to protect fifty percent of the test animals: See Warren Wick, et al., J. Bacteriol. 81, 233-235 (1961)].

Bacteroides corrodens = experiment: agar-dilution MIC; assay type: cell-based; conditions: Bacteroides corrodens 1874; Table 14
Clostridium perfringens = assay type: cell-based; conditions: Clostridium perfringens 81; Table 14
S. pyogenes = experiment: experimental bacterial infection in mice; assay type: in vivo
[3] = tested on: Fusobacterium necrophorum; experiment: agar-dilution MIC; assay type: cell-based; conditions: Fusobacterium necrophorum 6054A; Table 14

Structure (SMILES): NC1C(=O)NC2Cc3ccc(c(Cl)c3)Oc3cc4cc(c3O)Oc3ccc(cc3Cl)C(O)C3NC(=O)C(NC(=O)C4NC(=O)C(NC2=O)c2cc(O)cc(c2)Oc2cc1ccc2O)c1cc(Cl)c(O)c(c1)-c1c(O)cc(O)cc1C(C(=O)O)NC3=O (centres unmarked) [A41030 factor A]
- MIC [1]: 0.25 µg/mL (≈ 0.203 µM)
- MIC (Streptococcus pneumoniae; Streptococcus pneumoniae 2764, Table 11): 0.25 µg/mL (≈ 0.203 µM)
- MIC (Streptococcus pneumoniae; Streptococcus pneumoniae 6301, Table 11): 0.25 µg/mL (≈ 0.203 µM)
- MIC (Streptococcus pneumoniae; Streptococcus pneumoniae B1-438, end point after 24 hours, Table 18): 0.25 µg/mL (≈ 0.203 µM)
- MIC (Streptococcus pneumoniae; Streptococcus pneumoniae BI-343, Table 11): 0.25 µg/mL (≈ 0.203 µM)
- MIC (Streptococcus pneumoniae; Streptococcus pneumoniae Park I, Table 11): 0.25 µg/mL (≈ 0.203 µM)
- MIC (Streptococcus pneumoniae; Streptococcus pneumoniae Park I, Table 17): 0.5 µg/mL (≈ 0.405 µM)
- MIC (Streptococcus pneumoniae; Streptococcus pneumoniae Type 14, Table 11): 0.25 µg/mL (≈ 0.203 µM)
- MIC (Streptococcus pyogenes; Streptococcus pyogenes 9943, Table 11): 0.25 µg/mL (≈ 0.203 µM)
- MIC (Streptococcus pyogenes; Streptococcus pyogenes 10389, Table 11): 0.25 µg/mL (≈ 0.203 µM)
- MIC (Streptococcus pyogenes; Streptococcus pyogenes 12344, Table 11): 0.5 µg/mL (≈ 0.405 µM)
- MIC (Streptococcus pyogenes; Streptococcus pyogenes C203, Table 11): 0.25 µg/mL (≈ 0.203 µM)
- MIC (Streptococcus pyogenes; Streptococcus pyogenes C203, Table 17): 0.5 µg/mL (≈ 0.405 µM)
- MIC (Streptococcus pyogenes; Streptococcus pyogenes C203, end point after 24 hours, Table 18): 0.25 µg/mL (≈ 0.203 µM)
- MIC (Streptococcus pyogenes; Streptococcus pyogenes M-6517, Table 11): 0.25 µg/mL (≈ 0.203 µM)
- MIC (Bacteroides fragilis; B. fragilis 2, 24-hour, Table 12): 64 µg/mL (≈ 51.9 µM)
- MIC (Bacteroides fragilis; B. fragilis 9, 24-hour, Table 12): 64 µg/mL (≈ 51.9 µM)
- MIC (Bacteroides fragilis; B. fragilis 103, 24-hour, Table 12): 32 µg/mL (≈ 25.9 µM)
- MIC (Bacteroides fragilis; B. fragilis 104, 24-hour, Table 12): 32 µg/mL (≈ 25.9 µM)
- MIC (Bacteroides fragilis; B. fragilis 106, 24-hour, Table 12): 64 µg/mL (≈ 51.9 µM)
- MIC (Bacteroides fragilis; B. fragilis 107, 24-hour, Table 12): 32 µg/mL (≈ 25.9 µM)
- MIC (Bacteroides fragilis; B. fragilis 108, 24-hour, Table 12): 32 µg/mL (≈ 25.9 µM)
- MIC (Bacteroides fragilis; B. fragilis 110, 24-hour, Table 12): 64 µg/mL (≈ 51.9 µM)
- MIC (Bacteroides fragilis; B. fragilis 111, 24-hour, Table 12): 32 µg/mL (≈ 25.9 µM)
- MIC (Bacteroides fragilis; B. fragilis 112, 24-hour, Table 12): 64 µg/mL (≈ 51.9 µM)
- MIC (Bacteroides fragilis; B. fragilis 113, 24-hour, Table 12): 32 µg/mL (≈ 25.9 µM)
- MIC (Bacteroides fragilis; B. fragilis 1451, 24-hour, Table 12): 64 µg/mL (≈ 51.9 µM)
- MIC (Bacteroides fragilis; B. fragilis 1470, 24-hour, Table 12): 64 µg/mL (≈ 51.9 µM)
- MIC (Bacteroides fragilis; B. fragilis 1877, 24-hour, Table 12): 32 µg/mL (≈ 25.9 µM)
- MIC (Bacteroides fragilis; B. fragilis 9032, 24-hour, Table 12): 64 µg/mL (≈ 51.9 µM)
- MIC (Bacteroides fragilis; Bacteroides fragilis 1877, Table 14): 32 µg/mL (≈ 25.9 µM)
- MIC (Bacteroides fragilis; Bacteroides fragilis 1936B, Table 14): 64 µg/mL (≈ 51.9 µM)
- MIC (Hemophilus influenzae; Haemophilus influenzae 76, end point after 24 hours, Table 18): 4 µg/mL (≈ 3.24 µM)
- MIC (Hemophilus influenzae; Haemophilus influenzae 251, Table 17): 2 µg/mL (≈ 1.62 µM)
- MIC (Hemophilus influenzae; Haemophilus influenzae 312, end point after 24 hours, Table 18): 2 µg/mL (≈ 1.62 µM)
- MIC (Hemophilus influenzae; Haemophilus influenzae 4842, end point after 24 hours, Table 18): 2 µg/mL (≈ 1.62 µM)
- MIC (Hemophilus influenzae; Haemophilus influenzae 16836, end point after 24 hours, Table 18): 4 µg/mL (≈ 3.24 µM)
- MIC (Hemophilus influenzae; Haemophilus influenzae Bond, end point after 24 hours, Table 18): 2 µg/mL (≈ 1.62 µM)
- MIC (Hemophilus influenzae; Haemophilus influenzae Brun, Table 17): 8 µg/mL (≈ 6.49 µM)
- MIC (Hemophilus influenzae; Haemophilus influenzae C.L., end point after 24 hours, Table 18): 4 µg/mL (≈ 3.24 µM)
- MIC (Hemophilus influenzae; Haemophilus influenzae Mx366, end point after 24 hours, Table 18): 2 µg/mL (≈ 1.62 µM)
- MIC (Hemophilus influenzae; Haemophilus influenzae Mx371, end point after 24 hours, Table 18): 2 µg/mL (≈ 1.62 µM)
- MIC (Hemophilus influenzae; Hemophilus influenzae 75-312, Table 9): 8 µg/mL (≈ 6.49 µM)
- MIC (Hemophilus influenzae; Hemophilus influenzae 75-313, Table 9): 16 µg/mL (≈ 13 µM)
- MIC (Hemophilus influenzae; Hemophilus influenzae 75-364, Table 9): 16 µg/mL (≈ 13 µM)
- MIC (Hemophilus influenzae; Hemophilus influenzae 75-465, Table 9): 32 µg/mL (≈ 25.9 µM)
- MIC (Hemophilus influenzae; Hemophilus influenzae 75-19300, Table 9): 16 µg/mL (≈ 13 µM)
- MIC (Hemophilus influenzae; Hemophilus influenzae 75-90383, Table 9): 16 µg/mL (≈ 13 µM)
- MIC (Hemophilus influenzae; Hemophilus influenzae 4842, Table 9): 8 µg/mL (≈ 6.49 µM)
- MIC (Hemophilus influenzae; Hemophilus influenzae A. Hall, Table 9): 16 µg/mL (≈ 13 µM)
- MIC (Hemophilus influenzae; Hemophilus influenzae Bruno, Table 9): 16 µg/mL (≈ 13 µM)
- MIC (Hemophilus influenzae; Hemophilus influenzae C. Steele, Table 9): 16 µg/mL (≈ 13 µM)
- MIC (Hemophilus influenzae; Hemophilus influenzae G. Newton, Table 9): 32 µg/mL (≈ 25.9 µM)
- MIC (Hemophilus influenzae; Hemophilus influenzae Howard, Table 9): 16 µg/mL (≈ 13 µM)
- MIC (Hemophilus influenzae; Hemophilus influenzae Miller, Table 9): 16 µg/mL (≈ 13 µM)
- MIC (Hemophilus influenzae; Hemophilus influenzae P. Wylie, Table 9): 16 µg/mL (≈ 13 µM)
- MIC (Hemophilus influenzae; Hemophilus influenzae R251, Table 9): 16 µg/mL (≈ 13 µM)
- MIC (Hemophilus influenzae; Hemophilus influenzae R259, Table 9): 16 µg/mL (≈ 13 µM)
- MIC (Hemophilus influenzae; Hemophilus influenzae R272, Table 9): 16 µg/mL (≈ 13 µM)
- MIC (Hemophilus influenzae; Hemophilus influenzae R274, Table 9): 16 µg/mL (≈ 13 µM)
- MIC (Hemophilus influenzae; Hemophilus influenzae S. Ford, Table 9): 16 µg/mL (≈ 13 µM)
- MIC [2]: 4 µg/mL (≈ 3.24 µM)
- ED50 (Staph. aureus): 1.4 mg/kg
- MIC (Bacteroides corrodens): 64 µg/mL (≈ 51.9 µM)
- MIC (Clostridium perfringens): 0.5 µg/mL (≈ 0.405 µM)
- ED50 (S. pyogenes; S. pyogenes infection in mice, two doses subcutaneously): 2.8 mg/kg
- in vivo oral activity (S. pyogenes; against S. pyogenes in mice, oral): > 300 mg./kg. X 2
- MIC [3]: 8 µg/mL (≈ 6.49 µM)
